Source: US9399635B2, “Pyrazole derivative” (GREEN TECH CO., LTD., priority 2011, dated 2016)

biological target: T1, Aβ 1-42 (Homo sapiens, UniProt P05067); experiment: Determination of Aβ aggregation inhibitory activity (thioflavin T fluorescence); type: biochemical; settings: Aβ 1-42, 37° C. for 24 hours, thioflavin T; read-out: IC50 (μM) Test example 3 (Aβ aggregation inhibitory activity)
T1 construct: Aβ 1-42 (Peptide Institute, Inc.) was dissolved in 0.3% ammonia water; purchased Peptide Institute, Inc
Method: Pharmacological test example 3: Determination of Aβ aggregation inhibitory activity
Aβ 1-42 (Peptide Institute, Inc.) was dissolved in 0.3% ammonia water so that the concentration would be 0.5 mM and then diluted with PBS to 20 μM. The test compounds were prepared using DMSO at 100-fold of their final concentrations and adjusted so that the DMSO concentration would be 2%. The Aβ solution and each of the test compound solutions were mixed at an equivalent ratio and the mixtures were incubated at 37° C. for 24 hours. To each of the mixtures, an equal volume of a thioflavin T solution adjusted with a 100 mM Tris-glycine buffer (pH 8.5) to 6 μM was added. The fluorescence intensity was measured with a fluorescence plate reader (excitation wavelength: 440 nm; emission wavelength: 480 nm).
The final concentration of each compound at the time of measurement was set at 0.1, 0.3, 1, 3, and 10 μM. The sample to which only DMSO was added was used as a negative control and its fluorescence intensity was taken as 0% inhibitory activity.

T1 sequence (P05067 672-713): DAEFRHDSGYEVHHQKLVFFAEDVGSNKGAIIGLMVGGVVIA

With `COc1cc(OCc2ccccn2)ccc1/C=C/c1cc(/C=C/c2ccc3ccn(C)c3c2)[nH]n1` [Example 35, 3-[(1E)-2-[2-methoxy-4-(2-pyridylmethoxy)phenyl]ethenyl]-5-[(1E)-2-(1-methyl-1H-indol-6-yl)ethenyl]-1H-pyrazole] as the compound, how does the IC50 read?
The IC50 was 0.91 µM.

For `COc1cc(OCc2ccccn2)ccc1/C=C/c1cc(/C=C/c2cc3ccccc3[nH]2)[nH]n1` [Example 36, 3-[(1E)-2-(1H-indol-2-yl)ethenyl]-5-[(1E)-2-[2-methoxy-4-(2-pyridylmethoxy)phenyl]ethenyl]-1H-pyrazole], which IC50 is on record?
Its IC50 is 2.9 µM.

Which IC50 does the source give for `CCN(CC)c1ccc(/C=C/c2cc(/C=C/c3ccc4cc[nH]c4c3)[nH]n2)c(OCc2ccccc2)c1` [Example 37, 3-[(1E)-2-(2-benzyloxy-4-diethylaminophenyl)ethenyl]-5-[(1E)-2-(1H-indol-6-yl)ethenyl]-1H-pyrazole] here?
Its IC50 is 0.4 µM.

test system: not given; experiment: not given; settings: not given

With `COc1cc(OCc2ccccn2)ccc1/C=C/c1cc(/C=C/c2ccc3ccn(C)c3c2)[nH]n1` [Example 35, 3-[(1E)-2-[2-methoxy-4-(2-pyridylmethoxy)phenyl]ethenyl]-5-[(1E)-2-(1-methyl-1H-indol-6-yl)ethenyl]-1H-pyrazole] as the compound, how does the melting point read?
The melting point was 172 to 174 °C.

For `COc1cc(OCc2ccccn2)ccc1/C=C/c1cc(/C=C/c2cc3ccccc3[nH]2)[nH]n1` [Example 36, 3-[(1E)-2-(1H-indol-2-yl)ethenyl]-5-[(1E)-2-[2-methoxy-4-(2-pyridylmethoxy)phenyl]ethenyl]-1H-pyrazole], which melting point is on record?
Its melting point is 150.8 to 151.6 °C.

For `CCN(CC)c1ccc(/C=C/c2cc(/C=C/c3ccc4cc[nH]c4c3)[nH]n2)c(OCc2ccccc2)c1` [Example 37, 3-[(1E)-2-(2-benzyloxy-4-diethylaminophenyl)ethenyl]-5-[(1E)-2-(1H-indol-6-yl)ethenyl]-1H-pyrazole], which melting point is on record?
The melting point was 78.1 to 80 °C.

With `COc1ccc(COc2ccc(/C=C/c3cc(/C=C/c4ccc5cc[nH]c5c4)[nH]n3)c(OC)c2)cc1` [Example 68, 3-[(1E)-2-(1H-indol-6-yl)ethenyl]-5-[(1E)-2-[2-methoxy-4-(4-methoxybenzyloxy)phenyl]ethenyl]-1H-pyrazole] as the compound, how does the melting point read?
Its melting point is 211 to 214 °C.

For `COc1cc(OCc2ccccn2)ccc1/C=C/c1cc(/C=C/c2cccc3ncccc23)[nH]n1` [Example 69, 3-[(1E)-2-(quinolin-5-yl)ethenyl]-5-[(1E)-2-[2-methoxy-4-(2-pyridylmethoxy)phenyl]ethenyl]-1H-pyrazole], which melting point is on record?
Its melting point is 107 to 120 °C.

With `COc1cc(OCc2ccccn2)ccc1/C=C/c1cc(/C=C/c2ccc3ccn(Cc4ccccc4)c3c2)[nH]n1` [Example 70, 3-[(1E)-2-(1-benzyl-1H-indol-6-yl)ethenyl]-5-[(1E)-2-[2-methoxy-4-(2-pyridylmethoxy)phenyl]ethenyl]-1H-pyrazole] as the compound, how does the melting point read?
The melting point was 89 to 93 °C.

With `Brc1cc(N2CCOCC2)ccc1/C=C/c1cc(/C=C/c2ccc3cc[nH]c3c2)[nH]n1` [Example 71, 3-[(1E)-2-[2-bromo-4-(morpholin-4-yl)phenyl]ethenyl]-5-[(1E)-2-(1H-indol-6-yl)ethenyl]-1H-pyrazole] as the compound, how does the melting point read?
Its melting point is 143 to 148 °C.

With `COc1cc(OCc2ccccn2)ccc1/C=C/c1cc(/C=C/c2ccc3ccn(C(C)=O)c3c2)[nH]n1` [Example 73, 3-[(1E)-2-(1-acetyl-1H-indol-6-yl)ethenyl]-5-[(1E)-2-[2-methoxy-4-(2-pyridylmethoxy)phenyl]ethenyl]-1H-pyrazole] as the compound, how does the melting point read?
Its melting point is 182 to 187 °C.

For `COc1cc(OCc2ccccn2)ccc1/C=C/c1cc(/C=C/c2ccc3ccn(S(C)(=O)=O)c3c2)[nH]n1` [Example 74, 3-[(1E)-2-(1-methanesulfonyl-1H-indol-6-yl)ethenyl]-5-[(1E)-2-[2-methoxy-4-(2-pyridylmethoxy)phenyl]ethenyl]-1H-pyrazole], which melting point is on record?
Its melting point is 212 to 214 °C.

For `COc1cc(OCc2ccccn2)ccc1/C=C/c1cc(/C=C/c2c[nH]c3ncccc23)[nH]n1` [Example 75, 3-[(1E)-2-(7-aza-1H-indol-3-yl)ethenyl]-5-[(1E)-2-[2-methoxy-4-(2-pyridylmethoxy)phenyl]ethenyl]-1H-pyrazole], which melting point is on record?
The melting point was 219 to 223 °C.

For `COc1cc(OCCN(C)C)ccc1/C=C/c1cc(/C=C/c2ccc3cc[nH]c3c2)[nH]n1` [Example 76, 3-[(1E)-2-[4-[2-(dimethylamino)ethoxy]-2-methoxyphenyl]ethenyl]-5-[(1E)-2-(1H-indol-6-yl)ethenyl]-1H-pyrazole], which melting point is on record?
The melting point was 109 to 112 °C.

For `CC(C)c1ccc(/C=C/c2cc(/C=C/c3ccc4cc[nH]c4c3)[nH]n2)cc1` [Example 78, 3-[(1E)-2-(1H-indol-6-yl)ethenyl]-5-[(1E)-2-(4-isopropylphenyl)ethenyl]-1H-pyrazole], which melting point is on record?
The melting point was 208 to 212 °C.

For `COc1cc(OCC2CCCCC2)ccc1/C=C/c1cc(/C=C/c2ccc3cc[nH]c3c2)[nH]n1` [Example 80, 3-[(1E)-2-[4-(cyclohexylmethoxy)-2-methoxyphenyl]ethenyl]-5-[(1E)-2-(1H-indol-6-yl)ethenyl]-1H-pyrazole], which melting point is on record?
The melting point was 104 to 108 °C.

Which melting point does the source give for `COc1cc(OCCn2cccc2)ccc1/C=C/c1cc(/C=C/c2ccc3cc[nH]c3c2)[nH]n1` [Example 81, 3-[(1E)-2-(1H-indol-6-yl)ethenyl]-5-[(1E)-2-[2-methoxy-4-[2-(pyrrol-1-yl)ethoxy]phenyl]ethenyl]-1H-pyrazole] here?
Its melting point is 102 to 110 °C.

Which melting point does the source give for `CCN(CC)c1ccc(/C=C/c2cc(/C=C/c3ccc4cc[nH]c4c3)[nH]n2)c(OCCN2CCCCC2)c1` [Example 97, 3-[(1E)-2-[4-diethylamino-2-[2-(1-piperidyl)ethoxy]phenyl]ethenyl]-5-[(1E)-2-(1H-indol-6-yl)ethenyl]-1H-pyrazole] here?
The melting point was 102 to 104 °C.

Which melting point does the source give for `COc1cc(OCc2ccccn2)ccc1/C=C/c1cc(/C=C/c2c[nH]c3ccc(F)cc23)[nH]n1` [Example 99, 3-[(1E)-2-(5-fluoro-1H-indol-3-yl)ethenyl]-5-[(1E)-2-[2-methoxy-4-(2-pyridylmethoxy)phenyl]ethenyl]-1H-pyrazole] here?
The melting point was 209 to 213 °C.

For `COc1ccc2[nH]cc(/C=C/c3cc(/C=C/c4ccc(OCc5ccccn5)cc4OC)n[nH]3)c2c1` [Example 100, 3-[(1E)-2-(5-methoxy-1H-indol-3-yl)ethenyl]-5-[(1E)-2-[2-methoxy-4-(2-pyridylmethoxy)phenyl]ethenyl]-1H-pyrazole], which melting point is on record?
The melting point was 189 to 195 °C.

For `C(=C\c1cc(/C=C/c2ccc3cc[nH]c3c2)[nH]n1)/c1ccc(N2CCOCC2)cc1` [Example 103, 5-[(1E)-2-(1H-indol-6-yl)ethenyl]-3-[(1E)-2-(4-morpholinophenyl)ethenyl]-1H-pyrazole], which melting point is on record?
The melting point was 236 to 238 °C.

With `CCN(CC)c1ccc(/C=C/c2cc(/C=C/c3ccc4cc[nH]c4c3)[nH]n2)c(OC)c1` [Example 104, 3-[(1E)-2-(4-diethylamino-2-methoxyphenyl)ethenyl]-5-[(1E)-2-(1H-indol-6-yl)ethenyl]-1H-pyrazole] as the compound, how does the melting point read?
Its melting point is 104 to 108 °C.

With `CN(C)c1ccc(/C=C/c2cc(/C=C/c3ccc4cc[nH]c4c3)[nH]n2)cc1` [Example 105, 3-[(1E)-2-(4-dimethylaminophenyl)ethenyl]-5-[(1E)-2-(1H-indol-6-yl)ethenyl]-1H-pyrazole] as the compound, how does the melting point read?
Its melting point is 224 to 227 °C.

With `CCN(CC)c1ccc(/C=C/c2cc(/C=C/c3ccc4cc[nH]c4c3)[nH]n2)cc1` [Example 106, 3-[(1E)-2-(4-diethylaminophenyl)ethenyl]-5-[(1E)-2-(1H-indol-6-yl)ethenyl]-1H-pyrazole] as the compound, how does the melting point read?
Its melting point is 201 to 204 °C.

Which melting point does the source give for `C(=C\c1cc(/C=C/c2ccc3cc[nH]c3c2)[nH]n1)/c1ccc(N2CCCCC2)cc1` [Example 107, 5-[(1E)-2-(1H-indol-6-yl)ethenyl]-3-[(1E)-2-[4-(1-piperidinyl)phenyl]ethenyl]-1H-pyrazole] here?
Its melting point is 189 to 191 °C.
